Patent US20080255192A1, “Methods and Compositions for Selectin Inhibition” (Wyeth, priority 2007, published 2008)

Target: T1, P-selectin/PSGL-1 interaction (Homo sapiens, UniProt P16109)
T1 construct: comprised of the lectin and epidermal growth factor-like (EGF) domains expressed in CHO cells; made in house; host or cells: CHO cells (P-LE)
T1 sequence (P16109 42-198): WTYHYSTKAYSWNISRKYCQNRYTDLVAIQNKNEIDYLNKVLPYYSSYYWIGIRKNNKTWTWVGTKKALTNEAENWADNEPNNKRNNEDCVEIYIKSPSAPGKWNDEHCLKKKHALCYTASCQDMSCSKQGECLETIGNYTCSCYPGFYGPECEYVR
Experiment: Biacore P-Selectin/PSGL-1 Inhibition Assay (surface plasmon resonance)
Type: binding
Conditions: 250 uM test compound, 500 nM P.LE, immobilized PSGL-1 19ek, 10% DMSO, pH 7.4
Experimental: Surface plasmon resonance assays were performed on a Biacore 3000 instrument (Biacore Inc. Piscataway, N.J.) at 25° C. at a flow rate of 30 μL/minute and each assay consisted of a 60-second equilibration, a 60-μL sample injection (kinject), and a 300-second dissociation.
A purified, monomeric, truncated form of human PSGL-1, “19ek”, that contained all the necessary P-selectin binding determinants (see Goetz, et al., J. Cell Biol., 1997, 137: 509-519; and Sako, et al., Cell, 1995, 83: 323-331) was biotinylated via amine chemistry (Sulfo-NHS-LC-Biotin, Peirce) at a unique C-terminal lysine residue (see Somers, et al., Cell, 2000, 103: 467-479) and immobilized on a Biacore SA sensor chip (Biacore Inc.), using an HBS-EP buffer (Biacore Inc.), and the target 600-700 RU. The coated chip was re-equilibrated with an HBS-P buffer (Biacore Inc.) to which 1 mM CaCl2 and 1 mM MgCl2 (both from Fisher) were added to ensure sufficient calcium for the calcium-dependent interaction between the receptor and the ligand.
Test compounds were incubated for 1 hour in a 1.1× Biacore assay buffer. Each solution was centrifuged through a 0.2 µm filter, using a 96-well plate format (Millipore). Glycyrrhizin tri-sodium salt (TCI) was prepared as a positive control in parallel with the test compounds, in the same manner described above.
A soluble recombinant truncated form of human P-selectin, P-LE, comprised of the lectin and epidermal growth factor-like (EGF) domains expressed in CHO cells (see Somers, et al., Cell, 2000, 103: 467-479) was added to each filtered test compound solution. Final concentrations of reagents were 500 nM P.LE, 250 or 500 μM test compound (depending on structure) or 1 mM glycyrrhizin, 10% DMSO, and 1× Biacore buffer ([…], 150 mM NaCl, 1 mM CaCl2, and 1 mM MgCl2 (all reagents from Fisher)), with a pH of 7.4. Compounds active at 250 μM were titrated to further define activity. Test samples were supplied to the Biacore instrument in a 96-well plate.
The Biacore raw data file was exported as a text file to an Excel spreadsheet, where the buffer blanks bracketing the samples were averaged for each Biacore instrument flow cell (Fc), and subtracted from the averaged uninhibited P.LE samples and from all the other samples. The reference signal from Fcl (uncoated) was then subtracted from its corresponding active (coated) signal for each injection, a process known as double referencing (see Myszka, J. Mol. Recognit., 1999, 12(5): 279-284). The percent inhibition of binding was calculated by dividing the reference-subtracted inhibited signal by the reference-subtracted uninhibited signal, subtracting this value from 1, and multiplying the resulting value by 100. The replicate percent inhibition values were averaged and expressed as the mean ±standard deviation. The inter-experiment standard deviation of calculated percent inhibitions in the Biacore assay was ±5.

| Compound | inhibition at 250 µM [%] |
| --- | --- |
| CCc1ccc2c(C(=O)O)c(O)c(C3(c4ccc(Cl)cc4)CC3)nc2c1 [Compound 12, 2-(1-(4-chlorophenyl)cyclopropyl)-7-ethyl-3-hydroxyquinoline-4-carboxylic acid] | 13 |
| CC(C)c1cccc2c(C(=O)O)c(O)c(C(c3ccccc3)C(C)C)nc12 (stereo not shown) [Compound 130, 3-Hydroxy-8-isopropyl-2-(2-methyl-1-phenylpropyl)quinoline-4-carboxylic acid] | 40 |
| O=C(O)c1c(O)c(C2(c3ccccc3Cl)CC2)nc2c(C(F)(F)F)cccc12 [Compound 55, 2-(1-(2-chlorophenyl)cyclopropyl)-3-hydroxy-8-(trifluoromethyl)quinoline-4-carboxylic acid] | 57 |
| Cc1cc(C(F)(F)F)cc2c(C(=O)O)c(O)c(C3(c4ccc(Cl)cc4)CC3)nc12 [Compound 97, 2-(1-(4-chlorophenyl)cyclopropyl)-3-hydroxy-8-methyl-6-(trifluoromethyl)quinoline-4-carboxylic acid] | 40 |
| Cc1cc(C(F)(F)F)c2nc(C3(c4ccccc4)CC3)c(O)c(C(=O)O)c2c1 [Compound 101, 3-hydroxy-6-methyl-2-(1-phenylcyclopropyl)-8-(trifluoromethyl)quinoline-4-carboxylic acid] | 40 |
| O=C(O)c1c(O)c(C2(c3ccccc3)CC2)nc2c(C(F)(F)F)cccc12 [Compound 34, 3-hydroxy-2-(1-phenylcyclopropyl)-8-(trifluoromethyl)quinoline-4-carboxylic acid] | 44 |
| CC(C)(C)c1cccc2c(C(=O)O)c(O)c(C3(c4ccc(Cl)cc4)CC3)nc12 [Compound 4, 8-tert-butyl-2-(1-(4-chlorophenyl)cyclopropyl)-3-hydroxyquinoline-4-carboxylic acid] | ≤ 10 |
| O=C(O)c1c(O)c(C2(c3ccc(OC(F)(F)F)cc3)CC2)nc2c(C(F)(F)F)cccc12 [Compound 56] | 29 |
| CC(C)c1cccc2c(C(=O)O)c(O)c(C3(c4ccc(F)cc4)CC3)nc12 [Compound 62, 2-(1-(4-fluorophenyl)cyclopropyl)-3-hydroxy-8-isopropylquinoline-4-carboxylic acid] | 67 |
| Cc1ccc(C2(c3nc4c(C(C)C)cccc4c(C(=O)O)c3O)CC2)cc1 [Compound 86, 3-hydroxy-8-isopropyl-2-(1-p-tolylcyclopropyl)quinoline-4-carboxylic acid] | 54 |
| CCc1ccc2c(C(=O)O)c(O)c(C3(c4ccc(F)cc4)CC3)nc2c1 [Compound 66, 7-ethyl-2-(1-(4-fluorophenyl)cyclopropyl)-3-hydroxyquinoline-4-carboxylic acid] | ≤ 10 |
| O=C(O)c1c(O)c(C2(c3ccc(Cl)cc3)CC2)nc2c(-c3ccccc3)cc(C(F)(F)F)cc12 [Compound 100, 2-(1-(4-chlorophenyl)cyclopropyl)-3-hydroxy-8-phenyl-6-(trifluoromethyl)quinoline-4-carboxylic acid] | ≤ 10 |
| O=C(O)c1c(O)c(C2(c3ccccc3)CC2)nc2ccc(Cl)cc12 [Compound 30, 6-chloro-3-hydroxy-2-(1-phenylcyclopropyl)quinoline-4-carboxylic acid] | ≤ 10 |
| O=C(O)c1c(O)c(C2(c3ccccc3)CC2)nc2cc(Cl)ccc12 [Compound 26, 7-chloro-3-hydroxy-2-(1-Phenylcyclopropyl)quinoline-4-carboxylic acid] | ≤ 10 |
| O=C(O)c1c(O)c(C2(c3ccc(Cl)cc3)CC2)nc2c(Br)cccc12 [Compound 9, 8-bromo-2-(1-(4-chlorophenyl)cyclopropyl)-3-hydroxyquinoline-4-carboxylic acid] | 46 |
| O=C(O)c1c(O)c(C2(c3ccccc3)CC2)nc2ccc(C(F)(F)F)cc12 [Compound 32, 3-hydroxy-2-(1-phenylcyclopropyl)-6-(trifluoromethyl)quinoline-4-carboxylic acid] | ≤ 10 |

| Compound | inhibition at 250 µM [%] |
| --- | --- |
| Cc1ccc(C2(c3nc4c(C(O)(C(F)(F)F)C(F)(F)F)cccc4c(C(=O)O)c3O)CC2)cc1 [Compound 85, 8-(1,1,1,3,3,3-hexafluoro-2-hydroxypropan-2-yl)-3-hydroxy-2-(1-p-tolylcyclopropyl)quinoline-4-carboxylic acid] | 59 |
| O=C(O)c1c(O)c(C2(c3ccc(Cl)cc3)CC2)nc2c(C(=O)O)cccc12 [Compound 108, 2-(1-(4-chlorophenyl)cyclopropyl)-3-hydroxyquinoline-4,8-dicarboxylic acid] | 12 |
| COc1ccc2nc(C3(c4ccc(F)cc4)CC3)c(O)c(C(=O)O)c2c1 [Compound 79, 2-(1-(4-fluorophenyl)cyclopropyl)-3-hydroxy-6-methoxyquinoline-4-carboxylic acid] | ≤ 10 |
| CC(C)c1cccc2c(C(=O)O)c(O)c(C3(c4ccc(C(F)(F)F)cc4)CC3)nc12 [Compound 88, 3-hydroxy-8-isopropyl-2-(1-(4-(trifluoromethyl)phenyl)cyclopropyl)quinoline-4-carboxylic acid] | 34 |
| Cc1ccc2c(C(=O)O)c(O)c(C3(c4ccccc4)CC3)nc2c1C [Compound 43, 3-hydroxy-7,8-dimethyl-2-(1-phenylcyclopropyl)quinoline-4-carboxylic acid] | 18 |
| CC(C)c1cccc2c(C(=O)O)c(O)c(C(C)(C)c3ccccc3)nc12 [Compound 116, 3-hydroxy-8-isopropyl-2-(2-phenylpropan-2-yl)quinoline-4-carboxylic acid] | 68 |
| O=C(O)c1c(O)c(C2(c3ccc(C(F)(F)F)cc3)CC2)nc2c(-c3ccsc3)cccc12 [Compound 91, 3-hydroxy-8-(thiophen-3-yl)-2-(1-(4-(trifluoromethyl)phenyl)cyclopropyl)quinoline-4-carboxylic acid] | ≤ 10 |
| CCc1ccc2c(C(=O)O)c(O)c(C3(c4ccc(C(F)(F)F)cc4)CC3)nc2c1 [Compound 89, 7-ethyl-3-hydroxy-2-(1-(4-(trifluoromethyl)phenyl)cyclopropyl)quinoline-4-carboxylic acid] | 10 |
| O=C(O)c1c(O)c(C2(c3cccs3)CC2)nc2c(C(F)(F)F)cccc12 [Compound 60, 3-hydroxy-2-(1-(thiophen-2-yl)cyclopropyl)-8-(trifluoromethyl)quinoline-4-carboxylic acid] | 15 |
| O=C(O)c1c(O)c(C2(c3ccc(Cl)cc3)CC2)nc2c(F)cccc12 [Compound 7, 2-(1-(4-chlorophenyl)cyclopropyl)-8-fluoro-3-hydroxyquinoline-4-carboxylic acid] | ≤ 10 |
| O=C(O)c1c(O)c(C2(c3ccc(F)cc3)CC2)nc2c(C(O)(C(F)(F)F)C(F)(F)F)cccc12 [Compound 76, 2-(1-(4-fluorophenyl)cyclopropyl)-8-(1,1,1,3,3,3-hexafluoro-2-hydroxypropan-2-yl)-3-hydroxyquinoline-4-carboxylic acid] | 43 |
| CC(C)(c1ccccc1)c1nc2c3c(ccc2c(C(=O)O)c1O)CCCC3 [Compound 114, 3-hydroxy-2-(2-phenylpropan-2-yl)-7,8,9,10-tetrahydrobenzo[h]quinoline-4-carboxylic acid] | 69 |
| Cc1ccc(C2(c3nc4c(C)cc(C)cc4c(C(=O)O)c3O)CC2)cc1 [Compound 84, 3-hydroxy-6,8-dimethyl-2-(1-p-tolylcyclopropyl)quinoline-4-carboxylic acid] | 11 |
| O=C(O)c1c(O)c(C2(c3ccccc3)CC2)nc2c3c(ccc12)CCCC3 [Compound 42, 3-hydroxy-2-(1-phenylcyclopropyl)-7,8,9,10-tetrahydrobenzo[h]quinoline-4-carboxylic acid] | 52 |
| O=C(O)c1c(O)c(C2(c3ccc(Cl)cc3)CC2)nc2c(C3CC3)cccc12 [Compound 109, 2-[1-(4-chloro-phenyl)-cyclopropyl]-8-cyclopropyl-3-hydroxy-quinoline-4-carboxylic acid] | 57 |
